Test [1] relates to Influenza strain A549 A/WSN/33 (H1N1). Briefly: Influenza Antiviral Assay. To be noted: Influenza A virus, A549, 20 h, neuraminidase fluorescence readout, read-out: % Inhibition. The test is classed as cell-based, Influenza A virus.
A further test addresses EN PA (Influenza A virus, UniProt P15659). Briefly: EN PA FRET Inhibition Assay. In kind it is biochemical. To be noted: read-out: Potency.

Consider 56 molecules from patent US10364226B2, “Pyridazinone compounds and uses thereof” (priority 2013, dated 2019).

With `Cc1cn(C2(Cn3cc(O)c(=O)c(C(=O)NCc4ccc(F)c(Cl)c4)n3)CCCC2)c2ncccc12` [Compound 757], the EC50 in test [1] was less than 20000 nM. Also, on EN PA, the IC50 was less than 100 nM.
On the same counts, the results for `NC(=O)c1nn(CC2(n3cc(Cl)c4cccnc43)CCCC2)cc(O)c1=O` [Compound 758] are less than 20000 nM and less than 100 nM.
Taken in the same sequence, the figures for `Cc1cn(C2(Cn3cc(O)c(=O)c(C(=O)NCCCO)n3)CCCC2)c2ncccc12` [Compound 759] were less than 20000 nM and less than 100 nM.
Taken in the same sequence, the figures for `O=C(NCC1CC1)c1nn(CC2(n3cc(Cl)c4cccnc43)CCCC2)cc(O)c1=O` [Compound 760] were less than 20000 nM and less than 100 nM.
As to `Cc1cn(C2(Cn3cc(O)c(=O)c(C(=O)NCCO)n3)CCCC2)c2ncccc12` [Compound 761], the EC50 in test [1] is less than 20000 nM. For the same molecule, the IC50 at EN PA was less than 100 nM.
For `C=Cc1ccc(C2(Cn3cc(O)c(=O)c(C(=O)NC)n3)CCCC2)cc1` [Compound 762], the EC50 in test [1] was less than 20000 nM. For the same molecule, the IC50 at EN PA is less than 100 nM.
Taken in the same sequence, the figures for `CNC(=O)c1nn(CC2(n3cc(C)c4cccnc43)CCCC2)cc(OC(=O)OCC(C)C)c1=O` [Compound 764] were less than 20000 nM and less than 100 nM.
Regarding `CNC(=O)c1nn(CC2(n3cc(C)c4cccnc43)CCCC2)cc(OC(=O)N(C)C)c1=O` [Compound 765], the EC50 in test [1] is 20000 to 100000 nM. Also, the IC50 at EN PA was no less than 1000 nM.
On the same counts, the results for `CC(C)(C)NC(=O)c1nn(CC2(n3cc(Cl)c4cccnc43)CCCC2)cc(O)c1=O` [Compound 766] are less than 20000 nM and less than 100 nM.
In the case of `CNC(=O)c1nn(CC2(c3cc(Cl)cc(C(F)(F)F)c3)CCCC2)cc(O)c1=O` [Compound 768], the EC50 in test [1] was less than 20000 nM. Moreover, at EN PA, the IC50 is less than 100 nM.
On the same counts, the results for `C[C@@H](NC(=O)c1nn(CC2(n3cc(Cl)c4cccnc43)CCCC2)cc(O)c1=O)C(F)(F)F` [Compound 771] are less than 20000 nM and 100 to 1000 nM.
Taken in the same sequence, the figures for `C[C@H](NC(=O)c1nn(CC2(n3cc(Cl)c4cccnc43)CCCC2)cc(O)c1=O)C(F)(F)F` [Compound 772] were less than 20000 nM and 100 to 1000 nM.
On the same counts, the results for `Cc1cn(C2(Cn3cc(O)c(=O)c(C(=O)N4CCC4)n3)CCCC2)c2ncccc12` [Compound 773] are less than 20000 nM and less than 100 nM.
For the molecule `CON(C)C(=O)c1nn(CC2(n3cc(C)c4cccnc43)CCCC2)cc(O)c1=O` [Compound 774], the EC50 in test [1] is less than 20000 nM. Besides, the IC50 at EN PA was less than 100 nM.
Taken in the same sequence, the figures for `CCOC(=O)Oc1cn(CC2(n3cc(C)c4cccnc43)CCCC2)nc(C(=O)NC)c1=O` [Compound 775] were less than 20000 nM and less than 100 nM.
Turning to `CNC(=O)c1nn(CC2(c3ccccc3)CCC(C)(C)C2)cc(O)c1=O` (stereo not shown) [Compound 776], the EC50 in test [1] was less than 20000 nM. The IC50 at EN PA was less than 100 nM.
On the same counts, the results for `CNC(=O)c1nn(CC2(c3ccc4ccccc4c3)CCCC2)cc(O)c1=O` [Compound 777] are less than 20000 nM and less than 100 nM.
Take `CNC(=O)c1nn(CC2(c3ccccc3)CC(C)(C)C2)cc(O)c1=O` [Compound 778]: the EC50 in test [1] is 20000 to 100000 nM. For the same molecule, at EN PA, the IC50 is less than 100 nM.
On the same counts, the results for `Cc1c(O)c(=O)c(C(=O)O)nn1CCc1ccccc1` [Compound 782] are greater than 100000 nM and less than 100 nM.
On the same counts, the results for `CNC(=O)c1nn(CC2(c3ccc(F)c(C(F)(F)F)c3)CCCC2)cc(O)c1=O` [Compound 783] are less than 20000 nM and less than 100 nM.
Taken in the same sequence, the figures for `O=C(NCc1ccc(F)c(Cl)c1)c1nn(CC2(c3ccc(Cl)c(Cl)c3)CCCC2)cc(O)c1=O` [Compound 784] were less than 20000 nM and 100 to 1000 nM.
With `CC1(C)CC(Cn2cc(O)c(=O)c(C(=O)O)n2)(c2ccccc2)C1` [Compound 785], the EC50 in test [1] is greater than 100000 nM. On EN PA, the IC50 is less than 100 nM.
Taken in the same sequence, the figures for `CC1(C)CCC(Cn2cc(O)c(=O)c(C(=O)O)n2)(c2ccccc2)C1` (stereo not shown) [Compound 786] were greater than 100000 nM and less than 100 nM.
On the same counts, the results for `CNC(=O)c1nn(CC2(n3cc(C)c4cccnc43)CCCCC2)cc(O)c1=O` [Compound 788] are less than 20000 nM and less than 100 nM.
On the same counts, the results for `CNC(=O)c1nn(CC2(n3cc(C)c4cccnc43)CCCC2)cc(OC(=O)OC(C)(C)C)c1=O` [Compound 789] are less than 20000 nM and less than 100 nM.
Take `CNC(=O)c1nn(CC2(n3c(C)cc4cccnc43)CCCC2)cc(O)c1=O` [Compound 790]: in test [1], the EC50 was less than 20000 nM. Besides, the IC50 at EN PA was less than 100 nM.
For the molecule `CCCC(Cn1cc(O)c(=O)c(C(=O)NC)n1)n1cc(C)c2cccnc21` (stereo not shown) [Compound 791], in test [1], the EC50 was less than 20000 nM. Further, on EN PA, the IC50 was in the range of 100 to 1000 nM.
For `Cc1cn(C2(Cn3cc(O)c(=O)c(C(=O)NC(C)(C)C)n3)CCCC2)c2ncccc12` [Compound 792], the EC50 in test [1] is less than 20000 nM. Further, at EN PA, the IC50 was less than 100 nM.
On the same counts, the results for `CNC(=O)c1nn(CC2(n3cc(C)c4cccnc43)CCCC2)cc(OC(=O)OC(C)C)c1=O` [Compound 793] are less than 20000 nM and 100 to 1000 nM.
On the same counts, the results for `O=C(c1nn(CC2(n3cc(Cl)c4cccnc43)CCCC2)cc(O)c1=O)N1CCC1` [Compound 794] are less than 20000 nM and less than 100 nM.
On the same counts, the results for `CC(=O)c1nn(CC2(n3cc(C)c4cccnc43)CCCC2)cc(O)c1=O` [Compound 795] are less than 20000 nM and 100 to 1000 nM.
With `CC1(C)CCC(Cn2cc(O)c(=O)c(C(=O)NCc3ccccc3)n2)(c2ccccc2)C1` (stereo not shown) [Compound 796], the EC50 in test [1] was greater than 100000 nM. Moreover, on EN PA, the IC50 fell in the range of 100 to 1000 nM.
Taken in the same sequence, the figures for `CC1(C)CCC(Cn2cc(O)c(=O)c(C(=O)NCc3ccc(F)c(Cl)c3)n2)(c2ccccc2)C1` (stereo not shown) [Compound 797] were less than 20000 nM and 100 to 1000 nM.
Taken in the same sequence, the figures for `CC1(C)CC(Cn2cc(O)c(=O)c(C(=O)NCc3ccccc3)n2)(c2ccccc2)C1` [Compound 798] were greater than 100000 nM and 100 to 1000 nM.
Regarding `CC1(C)CC(Cn2cc(O)c(=O)c(C(=O)NCc3ccc(F)c(Cl)c3)n2)(c2ccccc2)C1` [Compound 799], the EC50 in test [1] is less than 20000 nM. For the same molecule, on EN PA, the IC50 is less than 100 nM.
With `CNC(=O)c1nn(CC2(c3cc(F)cc(C(F)(F)F)c3)CCCC2)cc(O)c1=O` [Compound 800], the EC50 in test [1] is less than 20000 nM. Further, the IC50 at EN PA is less than 100 nM.
Taken in the same sequence, the figures for `CNC(=O)c1nn(CC2(n3cc(C)c4cccnc43)CCCC2)cc(OC(=O)OCC(C)(C)C)c1=O` [Compound 801] were less than 20000 nM and less than 100 nM.
Taken in the same sequence, the figures for `CNC(=O)c1nn(CC2(n3cc(C)c4cccnc43)CCCCC2)cc(OC(=O)OC(C)(C)C)c1=O` [Compound 806] were less than 20000 nM and less than 100 nM.
Taken in the same sequence, the figures for `O=C(NCc1ccccc1)c1nn(CC2(c3cccnc3)CCCC2)cc(O)c1=O` [Compound 807] were less than 20000 nM and less than 100 nM.
For `CNC(=O)c1nn(CC2(n3ccc4cccc(C)c43)CCCC2)cc(O)c1=O` [Compound 808], the EC50 in test [1] was less than 20000 nM. The IC50 on EN PA is less than 100 nM.
Taken in the same sequence, the figures for `O=C(NCc1ccc(F)c(Cl)c1)c1nn(CC2(c3ccncc3)CCCC2)cc(O)c1=O` [Compound 809] were less than 20000 nM and less than 100 nM.
On the same counts, the results for `CNC(=O)c1nn(CC2(n3ccc4ccc(C)cc43)CCCC2)cc(O)c1=O` [Compound 810] are less than 20000 nM and less than 100 nM.
On the same counts, the results for `O=C(NCc1ccccc1)c1nn(CC2(c3ccc(F)c(F)c3)CCCC2)cc(O)c1=O` [Compound 812] are less than 20000 nM and less than 100 nM.
In the case of `CNC(=O)c1nn(CC2(n3c4c(c5cccnc53)CCC4)CCCC2)cc(O)c1=O` [Compound 813], the EC50 in test [1] was less than 20000 nM. The IC50 on EN PA is less than 100 nM.
Taken in the same sequence, the figures for `CNC(=O)c1nn(CC2(n3cc(C)c4cccnc43)CCC2)cc(O)c1=O` [Compound 814] were less than 20000 nM and less than 100 nM.
On the same counts, the results for `CNC(=O)c1nn(CC2(n3ccc4cc(F)ccc43)CCCC2)cc(O)c1=O` [Compound 816] are less than 20000 nM and less than 100 nM.
Taken in the same sequence, the figures for `CNC(=O)c1nn(CC2(n3ccc4cc(Cl)cnc43)CCCC2)cc(O)c1=O` [Compound 818] were less than 20000 nM and less than 100 nM.
In the case of `CC(C)(C)NC(=O)c1nn(CC2(n3ccc4cc(F)ccc43)CCCC2)cc(O)c1=O` [Compound 819], the EC50 in test [1] is less than 20000 nM. In addition, on EN PA, the IC50 was less than 100 nM.
On the same counts, the results for `Cc1cn(C2(Cn3cc(O)c(=O)c(C(=O)NC(C)(C)CO)n3)CCCC2)c2ncccc12` [Compound 820] are less than 20000 nM and less than 100 nM.
Taken in the same sequence, the figures for `Cc1cn(C2(Cn3cc(O)c(=O)c(C(=O)NCC(C)C)n3)CCCC2)c2ncccc12` [Compound 821] were less than 20000 nM and less than 100 nM.
On the same counts, the results for `Cc1cn(C2(Cn3cc(O)c(=O)c(C(=O)NCC4(CO)CCCC4)n3)CCCC2)c2ncccc12` [Compound 822] are less than 20000 nM and less than 100 nM.
Turning to `Cc1cn(C2(Cn3cc(O)c(=O)c(C(=O)NCC(C)(C)CO)n3)CCCC2)c2ncccc12` [Compound 823], the EC50 in test [1] is less than 20000 nM. For the same molecule, the IC50 at EN PA is less than 100 nM.
On the same counts, the results for `CNC(=O)c1nn(CC2(n3nc(C)c4ccccc43)CCCC2)cc(O)c1=O` [Compound 824] are less than 20000 nM and 100 to 1000 nM.
As to `O=C(NCc1ccccc1)c1nn(CC2(c3ccncc3)CCCC2)cc(O)c1=O` [Compound 825], the EC50 in test [1] is less than 20000 nM. Further, the IC50 on EN PA lay in the range of 100 to 1000 nM.
On to `O=C1NCCCCCc2ccc3ccn(c3c2)C2(CCCC2)Cn2cc(O)c(=O)c1n2` [Compound 826], for which the EC50 in test [1] was less than 20000 nM. The IC50 on EN PA was less than 100 nM.
For the molecule `CCC(=O)c1nn(CC2(n3cc(C)c4cccnc43)CCCC2)cc(O)c1=O` [Compound 827], the EC50 in test [1] is less than 20000 nM. For the same molecule, the IC50 at EN PA is less than 100 nM.
